These results are taken from patent US8476255B2, “Histone deacetylase inhibitors” (Orchid Chemicals & Pharmaceuticals Limited, priority 2007, dated 2013).

The structures appear in SMILES notation.

One test deals with HCT 116 (colon) cells. Description: Anti-cancer screen (MTT), HCT 116. Type of test: cell-based. The note with it: Homo sapiens, HCT-116, HCT116, 48 hours, MTT; for GI50: read-out: Cell growth inhibition HCT116 (Colon) GI50; for CC50: read-out: Cell growth inhibition HCT116 (Colon) LC50; for IC (TGI): read-out: Cell growth inhibition HCT116 (Colon) TGI. As to the method: (§1) Experimental drugs were screened for anti-cancer activity in three cell lines using five concentrations for each compound. The cell lines —HCT 116 (colon), NCIH460 (lung) and U251 (glioma) were maintained in DMEM containing 10% fetal bovine serum. 96-well microtiter plates are inoculated with cells in 100 μL of cell suspension (5×10^4 cells/mL) for 24 hours at 37° C., 5% CO2, 95% air and 100% relative humidity. A separate plate with these cell lines is also inoculated to determine cell viability before the addition of the compounds (T0).
(§2) Following 24-hours incubation, test compounds were added to the 96 well plates. Each plate contains one of the above cell lines and the following samples in triplicate: five different dilutions (0.01, 0.1, 1, 10 and 100 μM) of four test compounds, appropriate dilutions of a cytotoxic standard and growth medium (untreated) wells. Test compounds were dissolved in DMSO to prepare 20 mM stock solutions on the day of drug addition and serial dilutions were carried out in complete growth medium at 2× strength such that 100 μL added to wells gave final concentrations (0.01, 0.1, 1, 10 and 100 μM) in the well. SAHA was used as standard drug in these experiments.
(§3) For T0 measurement, 24 hours after seeding the cells, 20 μL of 3-(4,5-dimethyl-2-thiazolyl)-2,5-diphenyl-2H-tetrazolium (MTT) solution per well was added to the ‘T0’ plate and incubated for 3 hours at 37° C. in a CO2 incubator. The plate containing cells and test compounds was treated similarly after 48 hours of incubation. After 3 hours of MTT addition, well contents were aspirated carefully followed by addition of 150 μL DMSO per well. Plates were agitated to ensure dissolution of the formazan crystals in DMSO and absorbance was read at 570 nm (A570).
(§4) (Mosmann T. Rapid colorimetric assay for cellular growth and survival: application to proliferation and cytotoxicity assays. J Immunol Methods 1983; 65(1-2): 55-63; Anne Monks et al. Feasibility of high-flux anticancer drug screen using a diverse panel of cultured human tumor cell lines”. JNCI, Vol. 83, No. 11, 1991).

In another test the test system is NCIH460 (lung) cells. Description: Anti-cancer screen (MTT), NCIH460. Format: cell-based. To be noted: Homo sapiens, NCI-H460, NCIH460, 48 hours, MTT; for GI50: read-out: Cell growth inhibition NCIH460 (Lung) GI50; for LC50: read-out: Cell growth inhibition NCIH460 (Lung) LC50; for IC (TGI): read-out: Cell growth inhibition NCIH460 (Lung) TGI. As to the method:
as §1, §2, §3, §4

Test [1] has as its system HDAC (Mouse Liver Extract). Description: HDAC inhibition assay using Boc-Lys(Ac)-AMC substrate. Type of test: biochemical. The note with it: mouse liver enzyme. As to the method: Inhibition of HDAC has been implicated to modulate transcription and to induce apoptosis or differentiation in cancer cells. The fluorometric assay provides a fast and fluorescence based method that eliminates radioactivity, extractions or chromatography, as used in traditional assays. The assay is based on two steps. First, the HDAC fluorometric substrate, which comprises an acetylated lysine side chain, is incubated with a sample containing HDAC activity (Mouse Liver Extract). Deacetylation of the substrate sensitizes the substrate, in the second step; treatment with the Trypsin stop solution produces a fluorophore that can be easily analyzed using fluorescence plate reader. Assay was done in 96-well black microplate and total volume of the assay was […]. […] The plate was pre-incubated at 37° C. for 5 minutes. […] The plate was incubated at 37° C. for 30 min. The reaction was stopped by adding 100 μL, of Trypsin stop solution and incubating at 37° C. for 15-30 min. Measuring the fluorescence at excitation wavelength of 360 nm and emission wavelength of 460 nm monitored the release of AMC. Buffer alone and substrate alone served as blank. […] (Dennis Wegener et al, Anal. Biochem, 321, 2003, 202-208).

Test [2] deals with NCIH460, HCT116 and U251 cells. Description: Anti-cancer screen, mean GI50 over cell lines. Format: cell-based. To be noted: mean over cell lines; read-out: Cell growth inhibition Mean GI50. How it is done:
as §1, §2, §3, §4

A further test has as its system U251 (glioma) cells. Description: Anti-cancer screen (MTT), U251. Format: cell-based. To be noted: Homo sapiens, U-251, U251, 48 hours, MTT; for GI50: read-out: Cell growth inhibition U251 (Glioma) GI50; for LC50 (concentration giving 50% net cell kill relative to the time-zero cell count): read-out: Cell growth inhibition U251 (Glioma) LC50; for IC (TGI): read-out: Cell growth inhibition U251 (Glioma) TGI. As to the method:
as §1, §2, §3, §4

Take `CSc1ccc(/C=C(/C(=O)NCc2ccc(C(=O)Nc3ccccc3N)cc2)c2cccs2)cc1` [Compound 18, N-(2-Aminophenyl)-4-((3-(4-methylthiophenyl)-2-(thiophen-2-yl)acrylamido)methyl)benzamide]: in the test with HCT 116 (colon) cells, the GI50 came out at 5 µM, the CC50 is above 100 µM and the IC (TGI) was found to be 20 µM. In the test on NCIH460 (lung) cells, the GI50 is 4.1 µM, the LC50 was above 100 µM and the IC (TGI) came out at 20 µM. Also, in test [1], the “HDAC inhibition % (1 μM)” value was 28.7% and the “HDAC inhibition % (10 μM)” value was found to be 36.7%. For the same compound, the GI50 in test [2] worked out at 3.8 µM. Also, in the test with U251 (glioma) cells, the GI50 was 2.2 µM, the LC50 (concentration giving 50% net cell kill relative to the time-zero cell count) worked out at 7 µM and the IC (TGI) worked out at 4 µM.

With `COc1ccc(/C=C(/C(=O)NCc2ccc(/C=C/C(=O)NO)cc2)c2ccc(F)cc2)cc1OC` [Compound 77, (1E)-N-(4-(3-(Hydroxyamino)-3-oxoprop-1-enyl)benzyl)-2-(4-fluorophenyl)-3-(3,4-dimethoxyphenyl)acrylamide], in the test on HCT 116 (colon) cells, the GI50 is 0.5 µM, the CC50 is 50 µM and the IC (TGI) turned out to be 6 µM. For the same compound, in the test with NCIH460 (lung) cells, the GI50 was determined as 2 µM, the LC50 is above 100 µM and the IC (TGI) was 70 µM. Also, in test [1], the “HDAC inhibition % (1 μM)” value came to 90.6%, the “HDAC inhibition % (10 μM)” value is recorded as 98.5% and the IC50 came out at 0.05 µM. In test [2], the GI50 came out at 1.7 µM. Moreover, in the test with U251 (glioma) cells, the GI50 came out at 2.6 µM, the LC50 (concentration giving 50% net cell kill relative to the time-zero cell count) was above 100 µM and the IC (TGI) amounted to 19 µM.

Regarding `COc1ccc(/C=C(/C(=O)NCc2ccc(C(=O)NO)cc2)c2ccc(F)cc2)cc1` [Compound 53, 4-((2-(4-Fluorophenyl)-3-(4-methoxyphenyl)acrylamido)methyl)-N-hydroxybenzamide], in the test with HCT 116 (colon) cells, the GI50 is 3 µM, the CC50 amounted to 51 µM and the IC (TGI) worked out at 17 µM. For the same compound, in the test with NCIH460 (lung) cells, the GI50 turned out to be 5.5 µM, the LC50 was determined as 49 µM and the IC (TGI) came out at 20 µM. In test [1], the “HDAC inhibition % (1 μM)” value turned out to be 88.6%; the “HDAC inhibition % (10 μM)” value worked out at 94.4%; the midpoint of inhibition, the IC50, lay at 0.04 µM. For the same compound, the GI50 in test [2] was found to be 3.8 µM. Moreover, in the test on U251 (glioma) cells, the GI50 came to 2.9 µM, the LC50 (concentration giving 50% net cell kill relative to the time-zero cell count) is 30 µM and the IC (TGI) came out at 7 µM.

As for `COc1ccc(/C=C(/C(=O)NCc2ccc(C(=O)Nc3ccccc3N)cc2)c2ccc(F)cc2)cc1` [Compound 11, N-(2-Aminophenyl)-4-((3-(4-methoxyphenyl)-2-(4-fluorophenyl)acrylamido)methyl)benzamide], in the test with HCT 116 (colon) cells, the GI50 worked out at 5 µM, the CC50 was found to be 68.5 µM and the IC (TGI) worked out at 12.5 µM. Also, in the test with NCIH460 (lung) cells, the GI50 is 8 µM, the LC50 is 83 µM and the IC (TGI) was 41.2 µM. Besides, in test [1], the “HDAC inhibition % (1 μM)” value is given as 9.7% and the “HDAC inhibition % (10 μM)” value is on record as 24.6%. Further, the GI50 in test [2] amounted to 13 µM. In the test with U251 (glioma) cells, the GI50 amounted to 26.1 µM, the LC50 (concentration giving 50% net cell kill relative to the time-zero cell count) worked out at 86 µM and the IC (TGI) was determined as 53 µM.

As for `CSc1ccc(/C=C(/C(=O)NCc2ccc(C(=O)NO)cc2)c2ccc(F)cc2)cc1` [Compound 52, 4-((2-(4-Fluorophenyl)-3-(4-methylthiophenyl)acrylamido)methyl)-N-hydroxybenzamide], in the test with HCT 116 (colon) cells, the GI50 was 5.6 µM, the CC50 came out at 69 µM and the IC (TGI) was 9.6 µM. Also, in the test on NCIH460 (lung) cells, the GI50 was determined as 12 µM, the 50% lethal concentration (LC50) was determined as 82 µM and the IC (TGI) came out at 53 µM. In test [1], the “HDAC inhibition % (1 μM)” value is on record as 83.5%; the “HDAC inhibition % (10 μM)” value was 95.7%; the midpoint of inhibition, the IC50, lay at 0.06 µM. In addition, the GI50 in test [2] is 9.2 µM. In addition, in the test with U251 (glioma) cells, the GI50 stood at 10 µM, the LC50 (concentration giving 50% net cell kill relative to the time-zero cell count) was found to be 75 µM and the IC (TGI) was found to be 54 µM.

`Nc1ccccc1NC(=O)c1ccc(CNC(=O)/C(=C/c2c(F)cc(F)cc2F)c2ccc(F)cc2)cc1` [Compound 13, N-(2-Aminophenyl)-4-((3-(2,4,6-trifluorophenyl)-2-(4-fluorophenyl)acrylamido)methyl)benzamide]: in the test on HCT 116 (colon) cells, the GI50 worked out at 8.9 µM, the CC50 was determined as 90 µM and the IC (TGI) turned out to be 50 µM. Besides, in the test with NCIH460 (lung) cells, the GI50 worked out at 34 µM, the LC50 stood at 93 µM and the IC (TGI) worked out at 66 µM. In test [1], the “HDAC inhibition % (1 μM)” value came to 9.4% and the “HDAC inhibition % (10 μM)” value is on record as 18.2%. Also, the GI50 in test [2] worked out at 15.4 µM. For the same compound, in the test with U251 (glioma) cells, the GI50 is 3.4 µM, the LC50 (concentration giving 50% net cell kill relative to the time-zero cell count) was determined as 48 µM and the IC (TGI) was determined as 8 µM.

As for `COC(=O)c1ccc(/C=C(/C(=O)NCc2ccc(C(=O)Nc3ccccc3N)cc2)c2ccc(F)c(F)c2)cc1` [Compound 38, N-(2-Aminophenyl)-4-((3-(4-carbmethoxyphenyl)-2-(3,4-difluorophenyl)acrylamido)methyl)benzamide], in the test with HCT 116 (colon) cells, the GI50 amounted to 6.5 µM, the CC50 was above 100 µM and the IC (TGI) was determined as 80 µM. In the test with NCIH460 (lung) cells, the GI50 was determined as 50 µM, the LC50 was above 100 µM and the IC (TGI) was above 100 µM. In addition, in test [1], the “HDAC inhibition % (1 μM)” value was found to be 20.6% and the “HDAC inhibition % (10 μM)” value stood at 34.9%. Also, the GI50 in test [2] turned out to be 23.8 µM. Besides, in the test on U251 (glioma) cells, the GI50 was 15 µM, the LC50 (concentration giving 50% net cell kill relative to the time-zero cell count) was above 100 µM and the IC (TGI) turned out to be 70 µM.

As to `Nc1ccccc1NC(=O)c1ccc(CNC(=O)/C(=C/c2ccccc2)c2ccccc2)cc1` [Compound 12, N-(2-Aminophenyl)-4-((3-phenyl-2-phenylacrylamido)methyl)benzamide], in the test on HCT 116 (colon) cells, the 50% growth inhibitory concentration (GI50) is 5.2 µM, the CC50 amounted to 76.2 µM and the IC (TGI) worked out at 37 µM. In addition, in the test on NCIH460 (lung) cells, the GI50 was 32 µM, the LC50 worked out at 87 µM and the IC (TGI) worked out at 60 µM. In test [1], the “HDAC inhibition % (1 μM)” value came to 13.6% and the “HDAC inhibition % (10 μM)” value is on record as 29.8%. Besides, the GI50 in test [2] amounted to 18.4 µM. Further, in the test with U251 (glioma) cells, the GI50 was 18 µM, the LC50 (concentration giving 50% net cell kill relative to the time-zero cell count) was found to be 82 µM and the IC (TGI) was 48.5 µM.

Take `O=C(CCCCCNC(=O)/C(=C/c1c(F)cc(F)cc1F)c1ccc(F)cc1)NO` [Compound 89, 6-(2-(4-Fluorophenyl)-3-(2,4,6-trifluorophenyl)acrylamido)-N-hydroxy hexanamide]: in the test on HCT 116 (colon) cells, the GI50 is 4 µM, the CC50 was determined as 83 µM and the IC (TGI) worked out at 10 µM. For the same compound, in the test with NCIH460 (lung) cells, the GI50 amounted to 3 µM, the LC50 is 45 µM and the IC (TGI) amounted to 13 µM. Moreover, in test [1], the “HDAC inhibition % (1 μM)” value was found to be 64.9%, the “HDAC inhibition % (10 μM)” value is 97.6% and the IC50 was found to be 0.03 µM. In test [2], the GI50 came to 3.7 µM. For the same compound, in the test on U251 (glioma) cells, the GI50 is 4 µM, the LC50 (concentration giving 50% net cell kill relative to the time-zero cell count) is 81 µM and the IC (TGI) was determined as 6.7 µM.

As a reminder, the GI50 is the concentration that inhibits growth by half. Broadly, the LC50 is the concentration that kills 50% of the test population. What is called IC50 is the concentration that gives 50% inhibition. Read a high IC50 as a need for much substance.
